Laboratory results published in ChEMBL document CHEMBL1201862, “PubChem BioAssay data set” (2004).
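Where inhibition never reached the appropriate level, the endpoint shown equals the highest concentration tested. Otherwise, values were interpolated linearly from a five-concentration, 48-hour dose response in 96-well plates. At the GI50, growth is halved.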 Active and inactive are the calls of the source. No stated cut-off is given here; in the data, active = GI50 up to about 1.1 µM and inactive = higher.

Key:
Experiment in all cases: inhibition of tumour cell growth, NCI panel, 48 h
[1] = system: MDA-MB-435
[2] = system: PC-3
[3] = system: CCRF-CEM
[4] = system: NCI-H522
[5] = system: SF-295
[6] = system: OVCAR-8
[7] = system: NCI-H460
[8] = system: UO-31
[9] = system: NCI-H23
[10] = system: T47D
[11] = system: KM12
[12] = system: EKVX
[13] = system: Malme-3M
[14] = system: BT-549
[15] = system: MDA-MB-231
[16] = system: U-251
[17] = system: MOLT-4
[18] = system: SR

SMILES | GI50 [1] | GI50 [2] | GI50 [3] | GI50 [4] | GI50 [5] | GI50 [6] | GI50 [7] | GI50 [8] | GI50 [9] | GI50 [10] | GI50 [11] | GI50 [12] | GI50 [13] | GI50 [14] | GI50 [15] | GI50 [16] | GI50 [17] | GI50 [18]
CC(CN1NC12CCCC2)N1NC12CCCC2 (stereo unspecified) | > 100 µM (inactive) | > 100 µM (inactive) | > 100 µM (inactive) | > 100 µM (inactive) | > 100 µM (inactive) | > 100 µM (inactive) | > 100 µM (inactive) | > 100 µM (inactive) | > 100 µM (inactive) | > 100 µM (inactive) | > 100 µM (inactive) | > 100 µM (inactive) | > 100 µM (inactive) | > 100 µM (inactive) | > 100 µM (inactive) | > 100 µM (inactive) | > 100 µM (inactive) | 
Cc1cc(C)nc(SCCc2cccc[n+]2C)n1 | > 100 µM (inactive) | > 100 µM (inactive) | > 100 µM (inactive) | > 100 µM (inactive) | > 100 µM (inactive) | > 100 µM (inactive) | > 100 µM (inactive) | > 100 µM (inactive) | > 100 µM (inactive) | > 100 µM (inactive) | > 100 µM (inactive) | 24.9 µM (inactive) | > 100 µM (inactive) | > 100 µM (inactive) | > 100 µM (inactive) | > 100 µM (inactive) | > 100 µM (inactive) | 
Cc1nn(-c2ccccc2)c(C)c1/C=N/N=C1\SCC(=O)N1c1ccccc1 | 20.5 µM (inactive) | 19.2 µM (inactive) | 25 µM (inactive) |  | 21.5 µM (inactive) | 21.7 µM (inactive) | 18.3 µM (inactive) | 21.5 µM (inactive) | 27.5 µM (inactive) | 26.5 µM (inactive) | 25 µM (inactive) | 12.4 µM (inactive) | 21.2 µM (inactive) | 22 µM (inactive) | 35 µM (inactive) | 25.8 µM (inactive) | 30.8 µM (inactive) | 25.1 µM (inactive)
O=C(CC(c1ccccc1)C(C(=O)c1ccncc1)C(CC(=O)c1ccncc1)c1ccccc1)c1ccncc1 (stereo unspecified) | > 100 µM (inactive) | 46.2 µM (inactive) | > 100 µM (inactive) |  | 29.8 µM (inactive) | 35.6 µM (inactive) | 89.5 µM (inactive) | > 100 µM (inactive) | 35 µM (inactive) | 29.4 µM (inactive) | > 100 µM (inactive) | 34.6 µM (inactive) | > 100 µM (inactive) | 18.5 µM (inactive) | 31.6 µM (inactive) | 42.8 µM (inactive) | > 100 µM (inactive) | > 100 µM (inactive)
COc1ccc2[nH]c(C(=O)N3CC(CCl)c4ccc(N)cc43)cc2c1 (stereo unspecified) | 0.264 µM (active) | 0.233 µM (active) | 0.17 µM (active) | 0.0161 µM (active) | 0.201 µM (active) | 0.223 µM (active) | 0.0867 µM (active) | 0.145 µM (active) | 0.0726 µM (active) | 0.455 µM (active) | 0.156 µM (active) | 0.368 µM (active) | 0.141 µM (active) | 0.412 µM (active) | 0.202 µM (active) | 0.313 µM (active) | 0.165 µM (active) | 
Cc1csc2nc(-c3ccc([N+](=O)[O-])cc3)c(/C=N/N=C(N)N)n12 | 1.64 µM (inactive) | 1.69 µM (inactive) | 1.91 µM (inactive) | 1.63 µM (inactive) | 1.74 µM (inactive) | 0.716 µM (active) | 1.79 µM (inactive) | 1.49 µM (inactive) | 1.64 µM (inactive) | 2.79 µM (inactive) | 1.7 µM (inactive) | 1.39 µM (inactive) | 1.53 µM (inactive) | 0.189 µM (active) | 1.76 µM (inactive) | 1.8 µM (inactive) |  | 
